In US5622725A, “Wound disinfection and repair” (Alcide Corporation, priority 1996, dated 1997):

System: Staphylococcus epidermidis biofilms
Assay: Sterilization of S. epidermidis biofilms, minimal exposure time at 22° C. (supravital dye, confirmed by culture)
Format: cell-based
Description: This example compares and contrasts the cidal effectiveness of compositions of the invention with other disinfectants and antibiotics against Staphylococcus epidermidis biofilms, which are frequently observed on the surface of C.A.P.D. peritoneal catheters even in the absence of peritonitis or exit site infections.
A strain of S. epidermidis with characteristic abundant slime production, and derived from a human source, is used to prepare the biofilms. The isolate is fully sensitive in the fluid phase to all commonly used antibiotics as assayed using routine test methods. Aliquots of the bacteria are frozen at -70° C. in 10% glycerol broth or propagated on 5% defibrinated horse blood agar. Standardized biofilms are formed on soda glass microscope slides or slides coated with Silastic® (the basic material of indwelling catheters; see Cecil's, cited above, on page 542), placed in Petri dishes containing 20 ml of tryptone soya broth (Oxoid Ltd., England), seeded with 10^4 cfu S. epidermidis and incubated for 18 hours at 37° C. Reproducible uniform and confluent S. epidermidis biofilms of minimal density are formed.
Antibiotic activity against S. epidermidis biofilms are determined using a supravital dye which acts as an electron acceptor in coupled oxidative systems in biofilm bacteria. The method allows the bacteria to be examined undisturbed within the biofilm matrix in situ. Briefly stated, the biofilms are exposed to antibiotic solutions and incubated at […] for varying periods of time. Positive (viable, 1% peptone water) and negative (sterilized, 4% formol-peptone) controls are included in all experiments. After a designated exposure at 22° C. for varying periods of time between 15 seconds to 6 hours, the biofilms are rinsed twice in sterile water and allowed to drain. They are then placed in a flat agar medium incorporating substantive dyes and incubated at 37° C. for 4 hours, then 24 hours. Viability is assessed visually by a change in dye color and confirmed after 24 hours by mechanically scraping and subsequently culturing the biofilms. Sterilization is indicated by the absence of color changes and confirmed by culture of both intact and mechanically fragmented biofilms. Inhibition of growth is indicated by a lack of color change after a 4-hour incubation and confirmed by a positive color change by 24 hours.

Compound | contact time relative to 50 ppm ClO2 to destroy the organisms in the biofilm (3% concentration, vs 50 ppm ClO2) [times] | Exposure Time (22° C.) for Film Sterilization [min] | Exposure Time (22° C.) for Film Sterilization (100 μg/ml) [min]
OO [Hydrogen Peroxide (3%), Hydrogen Peroxide] | 1200 | 10 | 
CO[C@H]1/C=C/O[C@@]2(C)Oc3c(C)c(O)c4c(O)c(c(/C=N/N5CCN(C)CC5)c(O)c4c3C2=O)NC(=O)/C(C)=C\C=C\[C@H](C)[C@H](O)[C@@H](C)[C@@H](O)[C@@H](C)[C@H](OC(C)=O)[C@@H]1C [rifampin] |  |  | 360
